Assay [1] addresses A-Raf kinase (SEQ. ID No: 1) (Homo sapiens (Human), UniProt P10398, Y301D/Y302D). The assay can be described thus: Biochemical Assay for A-Raf (2). The conditions noted are these: Table J, biochemical assay (2); read-out: ARAF (2). Here is the method: Biochemical Assay for A-Raf (2)
Activity of A-Raf kinase (SEQ. ID No: 1) was determined spectroscopically using a coupled pyruvate kinase/lactate dehydrogenase assay that continuously monitors the ATP hydrolysis-dependent oxidation of NADH (e.g., Schindler et al., Science, 2000, 289, 1938-1942). Assays were conducted in 384-well plates (25 μL final volume) using 20 nM A-Raf (Eurofins), 1.5 units pyruvate kinase, 2.1 units lactate dehydrogenase, 1 mM phosphoenol pyruvate, 0.7 mM NADH, 100 nM MEK (SignalChem), and 1 mM ATP in assay buffer (100 mM Tris, pH 7.5, 15 mM MgCl2, 0.5 mM DTT, 0.1% octyl-glucoside, 0.002% (w/v) BSA, and 0.002% Triton X-100). Inhibition of A-Raf was measured by adding serial diluted test compound (final assay concentration of 1% DMSO). A decrease in absorption at 340 nm was monitored hourly for 4 h at 30° C. on a multi-mode microplate reader (BioTek). The reaction rate was calculated using the 3 to 4 h time frame. The reaction rate at each concentration of compound was converted to percent inhibition using controls (i.e., reaction with no test compound and reaction with a known inhibitor) and IC50 values were calculated by fitting a four-parameter sigmoidal curve to the data using Prism (GraphPad software).

Assay [2] concerns the target C-Raf kinase (SEQ. ID NO: 3) (Homo sapiens (Human), UniProt P04049, Y340D/Y341D). The assay can be described thus: Biochemical Assay for C-Raf (2). The conditions noted are these: Table J, biochemical assay (2); read-out: CRAF (2). As for the experimental part: Biochemical Assay for C-Raf (2)
Activity of C-Raf kinase (SEQ. ID NO: 3) was determined spectroscopically using a coupled pyruvate kinase/lactate dehydrogenase assay that continuously monitors the ATP hydrolysis-dependent oxidation of NADH (e.g., Schindler et al., Science, 2000, 289, 1938-1942). Assays were conducted in 384-well plates (25 μL final volume) using 3.84 nM C-Raf (Eurofins), 1.5 units pyruvate kinase, 2.1 units lactate dehydrogenase, 1 mM phosphoenol pyruvate, 0.7 mM NADH, 50 nM MEK (SignalChem), and 1 mM ATP in assay buffer (100 mM Tris, pH 7.5, 15 mM MgCl2, 0.5 mM DTT, 0.1% octyl-glucoside, 0.002% (w/v) BSA, and 0.002% Triton X-100). Inhibition of C-Raf was measured by adding serial diluted test compound (final assay concentration of 1% DMSO). A decrease in absorption at 340 nm was monitored hourly for 4 h at 30° C. on a multi-mode microplate reader (BioTek). The reaction rate was calculated using the 2 to 3 h time frame. The reaction rate at each concentration of compound was converted to percent inhibition using controls (i.e., reaction with no test compound and reaction with a known inhibitor) and IC50 values were calculated by fitting a four-parameter sigmoidal curve to the data using Prism (GraphPad software).

The target in assay [3] is B-Raf kinase (SEQ. ID NO: 2) (Homo sapiens (Human), UniProt P15056). The assay is described as follows: Biochemical Assay for B-Raf (1). Particulars: Table J, biochemical assay (1); read-out: BRAF (1). In outline: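 Continuous PK/LDH-coupled NADH oxidation assay, A340 read for 6 h at 30° C., with 0.13 nM B-Raf, 30.1 nM MEK substrate and 1 mM ATP in Tris pH 7.5, MgCl2, DTT, detergents, 1% DMSO. Rate taken from 4–5 h window; percent inhibition vs no-compound and known-inhibitor controls; four-parameter fit gives IC50.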

The test system of the next assay is A375 cells. The assay can be described thus: A375 Cell Proliferation Assay (1). It counts as cell-based. The conditions noted are these: Homo sapiens, A-375. The gist of the method: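 Resazurin fluorescence (excitation 540 nm, emission 600 nm, after a further 5-6 h) gave IC50s from triplicate compound dilution series.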

Molecules are shown by their SMILES.

C-Raf kinase (SEQ. ID NO: 3), sequence (P04049 307-648 Y340D/Y341D): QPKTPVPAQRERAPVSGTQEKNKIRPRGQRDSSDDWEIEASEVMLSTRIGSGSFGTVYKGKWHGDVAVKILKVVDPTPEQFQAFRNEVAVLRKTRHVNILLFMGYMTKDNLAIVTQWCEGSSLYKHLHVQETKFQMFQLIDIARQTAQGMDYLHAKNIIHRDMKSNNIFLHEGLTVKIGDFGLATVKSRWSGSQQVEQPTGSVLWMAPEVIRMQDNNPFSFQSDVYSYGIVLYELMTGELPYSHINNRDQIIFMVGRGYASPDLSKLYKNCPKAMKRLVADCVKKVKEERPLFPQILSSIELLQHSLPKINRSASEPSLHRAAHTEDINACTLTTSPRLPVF
A-Raf kinase (SEQ. ID No: 1), sequence (P10398 other isoform, or with tags, fused parts or gaps Y301D (already in the parent)/Y302D (already in the parent)): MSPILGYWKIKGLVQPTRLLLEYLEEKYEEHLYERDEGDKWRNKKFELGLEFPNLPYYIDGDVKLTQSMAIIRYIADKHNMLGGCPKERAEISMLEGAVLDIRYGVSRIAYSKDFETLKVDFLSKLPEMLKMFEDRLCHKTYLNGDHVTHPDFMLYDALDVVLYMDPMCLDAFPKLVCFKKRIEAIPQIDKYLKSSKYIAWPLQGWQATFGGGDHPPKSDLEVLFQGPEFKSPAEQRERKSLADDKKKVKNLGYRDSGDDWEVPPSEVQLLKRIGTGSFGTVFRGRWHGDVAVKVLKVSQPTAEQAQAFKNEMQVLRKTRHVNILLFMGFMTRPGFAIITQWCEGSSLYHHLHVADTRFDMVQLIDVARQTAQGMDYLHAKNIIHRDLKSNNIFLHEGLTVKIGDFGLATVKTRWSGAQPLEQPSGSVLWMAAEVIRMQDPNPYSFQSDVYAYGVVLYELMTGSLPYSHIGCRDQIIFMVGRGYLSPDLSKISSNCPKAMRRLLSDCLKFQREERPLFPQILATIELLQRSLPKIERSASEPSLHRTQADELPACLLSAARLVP
B-Raf kinase (SEQ. ID NO: 2), sequence (P15056 416-766): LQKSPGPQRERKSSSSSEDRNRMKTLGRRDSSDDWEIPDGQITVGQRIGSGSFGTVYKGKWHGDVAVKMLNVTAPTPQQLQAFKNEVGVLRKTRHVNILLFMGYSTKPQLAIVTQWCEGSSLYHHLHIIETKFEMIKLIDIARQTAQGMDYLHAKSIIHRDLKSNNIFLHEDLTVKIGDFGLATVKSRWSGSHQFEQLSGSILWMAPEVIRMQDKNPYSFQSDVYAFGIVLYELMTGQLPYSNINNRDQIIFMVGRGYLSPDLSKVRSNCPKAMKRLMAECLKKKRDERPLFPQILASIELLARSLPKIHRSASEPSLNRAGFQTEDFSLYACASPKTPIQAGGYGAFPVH

Turning to `CNC(=O)c1cc(-c2cc(-c3cc(F)cc(NC(=O)c4ccnc(C(C)(C)F)c4)c3F)ccn2)ccn1` [Example 475], the IC50 in assay [1] and in assay [2] was 1000 to 10000 nM in each case.

As for `Cc1cc(F)c(NC(=O)c2ccnc(C(C)(C)C#N)c2)cc1-c1cncc(-c2ccnc(NC(=O)C3CC3)c2)c1` [Example 418], the IC50 (in assay [3]; with A375 cells) was no more than 100 nM throughout.

As for `COC(=O)Nc1cc(-c2cncc(-c3cc(NC(=O)c4ccnc(C(C)(C)F)c4)ccc3C)c2)ccn1` [Example 435], the IC50 (in assay [3]; with A375 cells) was no more than 100 nM each time.

For `Cc1ccc(NC(=O)c2ccnc(C(C)(C)F)c2)cc1-c1ccnc(-c2ccnc(C(=O)NCCN(C)C)c2)c1` [Example 453], the IC50 was 1000 to 10000 nM in assay [1] and no more than 100 nM in assay [2].

`Cc1ccc(NC(=O)c2ccnc(C3(C#N)CC3)c2)cc1-c1ccnc(-c2ccnc(NC(=O)C3CC3)c2)c1` [Example 457]: the results for the IC50 in assay [1] and in assay [2] were 100 to 500 nM and no more than 100 nM, respectively.

With `Cc1ncc(NC(=O)c2ccnc(C(C)(C)F)c2)cc1-c1cncc(-c2cc(NC(=O)C3CC3)ncn2)c1` [Example 406], the IC50 (in assay [3]; in the assay with A375 cells) was no more than 100 nM each time.

For the molecule `CNC(=O)c1cc(-c2cc(-c3cc(NC(=O)c4ccnc(C(C)(C)F)c4)ccc3C)ncn2)ccn1` [Example 474], the IC50 was 500 to 1000 nM in assay [1] and no more than 100 nM in assay [2].

In the case of `Cc1ncc(NC(=O)c2ccnc(C(C)(C)C#N)c2)cc1-c1cncc(-c2cc(NC(=O)C3CC3)ncn2)c1` [Example 410], the IC50 (in assay [3]; in the assay with A375 cells) was no more than 100 nM each time.

In the case of `Cc1ccc(NC(=O)c2ccnc(C(F)F)c2)cc1-c1cncc(-c2cc(NC(=O)C3CC3)ncn2)c1` [Example 429], the IC50 (in assay [3]; with A375 cells) was no more than 100 nM each time.

Regarding `COC(=O)Nc1cc(-c2cccc(-c3cc(NC(=O)c4ccnc(C(C)(C)F)c4)cnc3C)c2)ncn1` [Example 404], the IC50 (in assay [3]; in the assay with A375 cells) was 100 to 500 nM throughout.

As to `Cc1ccc(NC(=O)c2cc(C3CC3)on2)cc1-c1cncc(-c2cc(NC(=O)C3CC3)ncn2)c1` [Example 421], the IC50 (in assay [3]; in the assay on A375 cells) was no more than 100 nM throughout.

Take `Cc1ccc(NC(=O)c2cn(C(C)C)nn2)cc1-c1cncc(-c2cc(NC(=O)C3CC3)ncn2)c1` [Example 412]: the IC50 (in assay [3]; with A375 cells) was no more than 100 nM throughout.

As for `CNC(=O)c1cc(-c2cc(-c3cc(NC(=O)c4ccnc(C(C)(C)C#N)c4)ccc3OC)ccn2)ccn1` [Example 437], the IC50 in assay [3] is 100 to 500 nM; in the assay with A375 cells, 1000 to 10000 nM.

Turning to `Cc1ccc(NC(=O)c2cc(C(C)(C)C)on2)cc1-c1cncc(-c2cc(NC(=O)C3CC3)ncn2)c1` [Example 431], the IC50 (in assay [3]; in the assay on A375 cells) was no more than 100 nM in each case.

Regarding `CNC(=O)c1cc(-c2nccc(-c3cc(NC(=O)c4ccnc(C(C)(C)F)c4)c(F)cc3C)n2)ccn1` [Example 427], the IC50 (in assay [3]; in the assay with A375 cells) was 100 to 500 nM throughout.

On to `COC(=O)Nc1cc(-c2cncc(-c3cc(NC(=O)c4ccnc(C(C)(C)C#N)c4)ccc3C)c2)ncn1` [Example 414], for which the IC50 (in assay [3]; with A375 cells) was no more than 100 nM each time.

In the case of `Cc1ccc(NC(=O)c2cnn(C3CC3)c2)cc1-c1cncc(-c2cc(NC(=O)C3CC3)ncn2)c1` [Example 430], the IC50 in assay [3] was no more than 100 nM; in the assay on A375 cells, 100 to 500 nM.

Take `COC(=O)Nc1cc(-c2cccc(-c3cc(NC(=O)Cn4cc(C(C)C)nn4)cnc3C)c2)ccn1` [Example 415]: the IC50 was 500 to 1000 nM in assay [3] and 1000 to 10000 nM with A375 cells.

As for `COc1ccc(NC(=O)c2ccnc(C(C)(C)C#N)c2)cc1-c1cccc(-c2cc(NC(=O)C3CC3)ncn2)c1` [Example 438], the IC50 (in assay [3]; in the assay on A375 cells) was no more than 100 nM in each case.

Consider `COC(=O)Nc1cc(-c2cnnc(-c3cc(NC(=O)c4cn(C(C)C)nn4)ccc3C)c2)ccn1` [Example 409], for which the results for the IC50 (in assay [3]; with A375 cells) were 100 to 500 nM and 1000 to 10000 nM, respectively.

Take `Cc1ccc(NC(=O)c2ccnc(C(C)(C)F)c2)cc1-c1cncc(-c2ccnc(NC(=O)C3CC3)c2)c1` [Example 417]: the IC50 (in assay [3]; in the assay on A375 cells) was no more than 100 nM each time.

Take `Cc1ccc(NC(=O)c2ccnc(C(C)(F)F)c2)cc1-c1cncc(-c2cc(NC(=O)C3CC3)ncn2)c1` [Example 419]: the IC50 (in assay [3]; with A375 cells) was no more than 100 nM each time.

For `Cc1ccc(NC(=O)c2ccnc(C(C)(C)F)c2)cc1-c1cncc(-c2ccnc3c2CC(=O)N3)c1` [Example 432], the IC50 in assay [3] is no more than 100 nM; in the assay on A375 cells, 500 to 1000 nM.

For `COC(=O)Nc1cc(-c2cncc(-c3cc(NC(=O)c4ccnc(C5(C#N)CC5)c4)ccc3C)c2)ncn1` [Example 405], the IC50 (in assay [3]; with A375 cells) was no more than 100 nM in each case.

On to `Cc1ccc(NC(=O)c2cc(C3CC3)n(C)n2)cc1-c1nccc(-c2ccnc(NC(=O)C3CC3)c2)n1` [Example 436], for which the IC50 is no more than 100 nM in assay [3] and 100 to 500 nM in the assay with A375 cells.

Take `CNC(=O)c1cc(-c2cncc(-c3cc(NC(=O)c4ccnc(C(C)(C)F)c4)ccc3C)c2)ccn1` [Example 413]: the IC50 (in assay [3]; in the assay with A375 cells) was no more than 100 nM each time.

For the molecule `COC(=O)Nc1cc(-c2cc(-c3cc(NC(=O)c4ccnc(C(C)(C)F)c4)ccc3C)nc(C)n2)ccn1` [Example 416], the IC50 in assay [3] is no more than 100 nM; in the assay on A375 cells, 100 to 500 nM.

For the molecule `CNC(=O)c1cc(-c2cncc(-c3cc(NC(=O)c4ccnc(C(C)(C)F)c4)c(F)cc3C)c2)ccn1` [Example 408], the IC50 (in assay [3]; in the assay with A375 cells) was 100 to 500 nM throughout.

For `Cc1cc(F)c(NC(=O)c2ccnc(C(C)(C)F)c2)cc1-c1cncc(-c2cc(NC(=O)C3CC3)ncn2)c1` [Example 423], the IC50 (in assay [3]; in the assay on A375 cells) was no more than 100 nM each time.

Consider `Cc1cc(F)c(NC(=O)c2ccnc(C(C)(C)C#N)c2)cc1-c1cncc(-c2cc(NC(=O)C3CC3)ncn2)c1` [Example 424], for which the IC50 (in assay [3]; in the assay on A375 cells) was no more than 100 nM in each case.

Regarding `Cc1ccc(NC(=O)c2ccnc(C(C)(C)C#N)c2)cc1-c1cncc(-c2cc(N)ncn2)c1` [Example 422], the IC50 in assay [3] lay in the range of 100 to 500 nM; in the assay with A375 cells, 1000 to 10000 nM.

`Cc1ccc(NC(=O)c2ccnc(C(C)(C)C#N)c2)cc1-c1cncc(-c2cc(NC(=O)C(C)C)ncn2)c1` [Example 420]: the IC50 (in assay [3]; with A375 cells) was no more than 100 nM throughout.

Regarding `Cc1ccc(NC(=O)c2ccnc(C(C)C)c2)cc1-c1cncc(-c2cc(NC(=O)C3CC3)ncn2)c1` [Example 434], the IC50 (in assay [3]; in the assay with A375 cells) was no more than 100 nM throughout.

On to `Cc1ccc(NC(=O)c2ccnc(C(C)(C)F)c2)cc1-c1cncc(-c2cc(N)ncn2)c1` [Example 411], for which the IC50 was no more than 100 nM in assay [3] and 500 to 1000 nM in the assay on A375 cells.

As for `CNC(=O)c1cc(-c2cc(-c3cc(NC(=O)c4ccnc(C(C)(C)F)c4)ccc3C)nc(C)n2)ccn1` [Example 428], the IC50 (in assay [3]; with A375 cells) was 100 to 500 nM throughout.

`Cc1ncc(NC(=O)c2ccnc(C(C)(C)F)c2)cc1-c1cncc(-c2ccnc(NC(=O)C3CC3)c2)c1` [Example 433]: the IC50 (in assay [3]; in the assay with A375 cells) was no more than 100 nM each time.

On to `COC(=O)Nc1cc(-c2cncc(-c3cc(NC(=O)c4ccnc(C(C)(C)F)c4)ccc3C)c2)ncn1` [Example 425], for which the IC50 (in assay [3]; with A375 cells) was no more than 100 nM throughout.

For the molecule `Cc1ncc(NC(=O)c2ccnc(C(C)(C)C#N)c2)cc1-c1cccc(-c2cnc3ccccn23)c1` [Example 407], the figures for the IC50 (in assay [3]; with A375 cells) were 500 to 1000 nM and 1000 to 10000 nM, respectively.

Source of the values: patent US12319655B2, “RAF kinase inhibitors and methods of use thereof” (Deciphera Pharmaceuticals, LLC, priority 2021, dated 2025).
